Data taken from the Kinase Knowledgebase extract (Sharma et al. 2016).

Biological target: EGFR (human) (UniProt P00533)
Sequence (P00533 whole entry, looked up): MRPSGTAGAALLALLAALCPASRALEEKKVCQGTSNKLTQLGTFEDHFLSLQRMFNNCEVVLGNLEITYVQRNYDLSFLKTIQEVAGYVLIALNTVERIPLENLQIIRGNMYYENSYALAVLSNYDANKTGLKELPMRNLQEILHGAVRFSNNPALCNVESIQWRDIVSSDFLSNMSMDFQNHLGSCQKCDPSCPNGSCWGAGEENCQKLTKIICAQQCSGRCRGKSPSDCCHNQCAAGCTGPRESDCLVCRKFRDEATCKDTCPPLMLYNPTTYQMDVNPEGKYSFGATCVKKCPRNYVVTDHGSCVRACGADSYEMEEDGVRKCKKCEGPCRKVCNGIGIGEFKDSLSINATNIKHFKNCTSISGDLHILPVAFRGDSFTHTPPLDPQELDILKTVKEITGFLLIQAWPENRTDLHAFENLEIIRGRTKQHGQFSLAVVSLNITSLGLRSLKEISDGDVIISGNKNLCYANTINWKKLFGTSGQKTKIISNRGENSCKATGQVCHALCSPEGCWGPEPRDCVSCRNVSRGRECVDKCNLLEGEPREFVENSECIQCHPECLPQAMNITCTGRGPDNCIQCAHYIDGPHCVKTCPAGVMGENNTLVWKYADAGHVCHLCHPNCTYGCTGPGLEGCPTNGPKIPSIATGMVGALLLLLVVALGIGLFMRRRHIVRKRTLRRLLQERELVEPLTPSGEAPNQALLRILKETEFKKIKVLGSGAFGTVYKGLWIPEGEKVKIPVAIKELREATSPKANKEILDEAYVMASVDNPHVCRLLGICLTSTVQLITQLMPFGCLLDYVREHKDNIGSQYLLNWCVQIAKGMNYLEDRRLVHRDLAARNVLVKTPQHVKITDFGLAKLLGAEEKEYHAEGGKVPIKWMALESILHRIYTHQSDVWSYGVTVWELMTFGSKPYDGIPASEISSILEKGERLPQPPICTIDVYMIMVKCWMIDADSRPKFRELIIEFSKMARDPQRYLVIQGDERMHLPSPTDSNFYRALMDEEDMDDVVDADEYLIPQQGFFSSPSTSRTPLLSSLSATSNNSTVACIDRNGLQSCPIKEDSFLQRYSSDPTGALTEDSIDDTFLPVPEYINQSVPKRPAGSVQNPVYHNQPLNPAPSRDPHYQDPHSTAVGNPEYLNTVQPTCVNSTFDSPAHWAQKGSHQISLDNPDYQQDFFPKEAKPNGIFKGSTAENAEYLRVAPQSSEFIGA

IC50	Structure (SMILES)
> 20 µM	Cc1[nH]c(/C=C2\C(=O)Nc3cccc(-c4ccccc4F)c32)c(C)c1C(=O)N1CCN(C)CC1
> 20 µM	Cc1[nH]c(/C=C2\C(=O)Nc3cccc(-c4ccc(Cl)cc4)c32)c(C)c1C(=O)N1CCN(C)CC1
> 20 µM	CCN(CC)CCNC(=O)c1c(C)[nH]c(/C=C2\C(=O)Nc3cccc(-c4ccccc4)c32)c1C
> 20 µM	Cc1cc(C(=O)NCCn2ccnn2)c(/C=C2\C(=O)Nc3cccc(-c4ccccc4F)c32)[nH]1
> 20 µM	Cc1cc(C(=O)N2C[C@@H](C)N[C@@H](C)C2)c(/C=C2\C(=O)Nc3cccc(-c4ccc(Cl)cc4)c32)[nH]1
> 20 µM	Cc1[nH]c(/C=C2\C(=O)Nc3cccc(-c4ccc(Br)cc4)c32)c(C)c1C(=O)N1C[C@@H](C)N[C@@H](C)C1
> 20 µM	CCN(CC)CCNC(=O)c1c(C)[nH]c(/C=C2\C(=O)Nc3cccc(-c4ccc(OC(F)(F)F)cc4)c32)c1C
> 20 µM	Cc1[nH]c(/C=C2\C(=O)Nc3cccc(-c4cccc(C(F)(F)F)c4)c32)c(C)c1C(=O)N1CCN(C)CC1
> 20 µM	Cc1cc(C(=O)N2C[C@@H](C)N[C@@H](C)C2)c(/C=C2\C(=O)Nc3cccc(-c4cccc(Cl)c4)c32)[nH]1
> 20 µM	COc1ccc(-c2cccc3c2/C(=C/c2[nH]c(C)c(C(=O)N4C[C@@H](C)N[C@@H](C)C4)c2C)C(=O)N3)cc1
> 20 µM	CCN(CC)CCNC(=O)c1c(C)[nH]c(/C=C2\C(=O)Nc3cccc(-c4cccc(OC)c4)c32)c1C
> 20 µM	Cc1cc(C(=O)NCCn2ccnn2)c(/C=C2\C(=O)Nc3cccc(-c4cccc(Cl)c4)c32)[nH]1
> 20 µM	Cc1cc(C(=O)N2CC[C@H](N(C)C)C2)c(/C=C2\C(=O)Nc3cccc(-c4ccc(F)cc4)c32)[nH]1
> 20 µM	COc1cccc(-c2cccc3c2/C(=C/c2[nH]c(C)c(C(=O)NCCN(C(C)C)C(C)C)c2C)C(=O)N3)c1
> 20 µM	Cc1cc(C(=O)NCCN2CCCC2)c(/C=C2\C(=O)Nc3cccc(-c4ccc(Br)cc4)c32)[nH]1
> 20 µM	Cc1cc(C(=O)N2CC[C@@H](N(C)C)C2)c(/C=C2\C(=O)Nc3cccc(-c4ccc(Cl)cc4)c32)[nH]1
> 20 µM	Cc1[nH]c(/C=C2\C(=O)Nc3cccc(-c4ccc(Br)cc4)c32)c(C)c1C(=O)N1CCN(C)CC1
> 20 µM	COc1ccc(-c2cccc3c2/C(=C/c2[nH]c(C)cc2C(=O)NCCN2CCCC2)C(=O)N3)cc1
> 20 µM	Cc1[nH]c(/C=C2\C(=O)Nc3cccc(-c4cccc(F)c4)c32)c(C)c1C(=O)NCCn1ccnn1
> 20 µM	Cc1cc(C(=O)NCCN2CCCC2)c(/C=C2\C(=O)Nc3cccc(-c4ccc(F)c(Cl)c4)c32)[nH]1
> 20 µM	Cc1cc(C(=O)N2CC[C@H](N(C)C)C2)c(/C=C2\C(=O)Nc3cccc(-c4cccc(Cl)c4)c32)[nH]1
> 20 µM	Cc1[nH]c(/C=C2\C(=O)Nc3cccc(-c4ccc(F)cc4)c32)c(C)c1C(=O)N1CCN(C)CC1
> 20 µM	CCN(CC)CCNC(=O)c1c[nH]c(/C=C2\C(=O)Nc3cccc(-c4ccc(Br)cc4)c32)c1C
> 20 µM	COc1cccc(-c2cccc3c2/C(=C/c2[nH]c(C)c(C(=O)NCCn4ccnn4)c2C)C(=O)N3)c1
